Test results reported in patent US20200339625A1, “NOVEL RADIOMETAL-BINDING COMPOUNDS FOR DIAGNOSIS OR TREATMENT OF PROSTATE SPECIFIC MEMBRANE ANTIGEN-EXPRESSING CANCER” (PROVINCIAL HEALTH SERVICES AUTHORITY, priority 2017, published 2020).

Legend:
[1] = Radiation dosimetry calculation (OLINDA), 25-g mouse
Description: 1.18 Radiation Dosimetry Calculation
(§1) Internal dosimetry estimates were calculated using the organ level internal dose assessment (OLINDA) software v.2.0.^37 These estimates were performed for the mouse using the 25 g MOBY phantom,^38 for humans using the NURBS model for the adult male,^39 and for the tumors using the previously reported unit density sphere model.^40 All the phantoms and the sphere model are available in OLINDA and require the input of the total number of decays normalized by injected activity in units of MBq×h/MBq for each of the source organ/tumor.
The biodistribution data (available in the Tables 1 and 2, below) was used to determine the kinetics input values required by OLINDA. First, each of the values was decayed to its corresponding time point (the values on the table are shown at injection time). Then the different time-points of the uptake data (% ID/g) for each organ were fitted to both mono-exponential
functions using in-house software developed in Python. The best fit was selected based on maximizing the coefficient of determination (R2) of the fit and minimizing the residuals. The areas under the curves were analytically calculated based on the parameters obtained from the best fit of each organ and this provided the kinetic input values required by OLINDA.
In the mouse case, the adrenals, blood, fat, muscle, and seminal vesicles are not modeled in the phantom. These organs were grouped together and included in what OLINDA calls the remainder of the body.

[2] = Radiation dosimetry calculation (OLINDA), extrapolated to humans (male); parameters: species or system human
Description: as §1
Extrapolation of the mice biodistribution data to humans was performed using the method proposed by Kirschner et al.^41 and shown in the following equation: […]
Where morgan is the mass of the organ and M represents the total body mass. The subscripts indicate whether the values correspond to human or mouse. Masses for the organs and total body weight were taken from the simulated masses of the phantoms in OLINDA. […] The % ID/g of the blood was assumed to be the one for the heart contents of the phantom. This value was also used to calculate the bone marrow uptake based on the method described by Wessels et al.^42 in which we assumed a hematocrit fraction of 0.40 based on the patient values shown on that study. At the end, red marrow values used the blood measurements scaled by a factor of 0.32. In the human case, the fat, muscle, and seminal vesicles that are present in the biodistribution data are not modelled in the phantom so the numbers of decays present in these regions were included in the remainder of the body. The data was again fitted as for the mouse case and the values for the total number of decays in units of MBq×h/MBq were inputted in OLINDA.

[3] = system: metastatic prostate cancer; settings: cited from earlier work
[4] = system: mice bearing LNCaP tumor xenografts; experiment: SPECT/CT imaging of 177Lu-labeled compounds; assay type: in vivo; settings: for size of LNCaP tumor xenografts over time: injection of about 37 MBq, SPECT/CT
Description: SPECT/CT imaging and biodistribution were performed using NOD-scid IL2Rgammanu^null (NSG) male mice, and the endoradiotherapy study was conducted using NOD.Cg-Rag1^tm1MomII2rg^tm1WjI/SzJ (NRG) male mice. The mice were maintained and the experiments were conducted in according to the guidelines established by the Canadian Council on Animal Care and approved by Animal Ethics Committee of the University of British Columbia. Mice were anesthetized by inhalation with 2% isoflurane in oxygen, and implanted subcutaneously with 1×10^7 LNCaP cells posterior to the left shoulder. Mice were used for studies when the tumor reached 5-8 mm in diameter 5-6 weeks after inoculation.
SPECT/CT imaging experiments were conducted using the MILabs (Utrecht, the Netherlands) U-SPECT-II/CT scanner. Each tumor-bearing mouse was injected with ≠37 MBq of ^177Lu-labeled PSMA-617 or HTK01169 through the tail vein under anesthesia (2% isoflurane in oxygen). The mice were allowed to recover and roam freely in their cage and imaged at 4, 24, 72 and 120 hours after injection. At each time point, the mice were sedated again and positioned in the scanner. A 5-min CT scan was conducted first for anatomical reference with a voltage setting at 60 kV and current at 615 μA followed by a 60-min static emission scan acquired in list mode using an ultra-high resolution multi-pinhole rat-mouse (1 mm pinhole size) collimator. Data were reconstructed using the U-SPECT II software with a 20% window width on three energy windows. The photopeak window was centered at 208 keV, with lower scatter and upper scatter windows centered at 170 and 255 keV, respectively. The images were reconstructed using the ordered subset expectation maximization algorithm (3 iterations, 16 subsets), and a 0.5 mm post-processing Gaussian filter. Images were decay corrected to injection time in PMOD (PMOD Technologies, Switzerland) then converted to DICOM for qualitative visualization in the Inveon Research Workplace software (Siemens Medical Solutions USA, Inc.).

[5] = system: PSMA-expressing PC-3 PIP tumors; settings: 5 MBq; cited from earlier work
[6] = system: LNCaP tumors; experiment: Radiation dosimetry calculation, unit density sphere model; parameters: species or system mice
Description: as §1
Lastly, the numbers of decays in the tumors were also calculated based on the biodistribution data of the mice and the values were inputted into the sphere model available in OLINDA.

[7] = source organ Large intestine contents
[8] = source organ Remainder of the body
[9] = source organ Urinary bladder contents
[10] = source organ Adrenals, human male
[11] = source organ Cortical bone, human male
[12] = source organ Heart contents, human male
[13] = source organ Heart wall, human male
[14] = source organ Kidneys, human male
[15] = source organ Left colon, human male
[16] = source organ Pancreas, human male
[17] = source organ Rectum, human male
[18] = source organ Red marrow, human male
[19] = source organ Remainder of the body, human male
[20] = source organ Right colon, human
[21] = source organ Small Intestine, human
[22] = source organ Spleen, human male
[23] = source organ Stomach contents, human male
[24] = source organ Testes, human male
[25] = source organ Urinary bladder contents, human male

SMILES: O=C([O-])CN1CCN(CC(=O)[O-])CCN(CC(=O)NCC2CCC(C(=O)N[C@@H](Cc3ccc4ccccc4c3)C(=O)NCCCC[C@H](NC(=O)N[C@@H](CCC(=O)O)C(=O)O)C(=O)O)CC2)CCN(CC(=O)[O-])CC1.[177Lu+3] (some centres unmarked) [^177Lu-PSMA-617, reference compound]
- Kinetics value ([1]; source organ Brain): 6.96E−03 MBq-h/MBq
- Kinetics value ([1]; source organ Cortical bone): 9.96E−02 MBq-h/MBq
- Kinetics value ([1]; source organ Heart contents): 4.21E−03 MBq-h/MBq
- Kinetics value ([1]; source organ Kidneys): 1.13E+00 MBq-h/MBq
- Kinetics value [1, 7]: 1.74E−02 MBq-h/MBq
- Kinetics value ([1]; source organ Liver): 6.54E−02 MBq-h/MBq
- Kinetics value ([1]; source organ Lungs): 5.10E−03 MBq-h/MBq
- Kinetics value ([1]; source organ Pancreas): 5.44E−03 MBq-h/MBq
- Kinetics value [1, 8]: 6.82E−01 MBq-h/MBq
- Kinetics value ([1]; source organ Small intestine): 5.20E−02 MBq-h/MBq
- Kinetics value ([1]; source organ Spleen): 1.50E−02 MBq-h/MBq
- Kinetics value ([1]; source organ Stomach contents): 5.42E−03 MBq-h/MBq
- Kinetics value ([1]; source organ Testes): 4.96E−03 MBq-h/MBq
- Kinetics value [1, 9]: 1.10E+00 MBq-h/MBq
- Kinetics value [2, 10]: 1.00E−03 MBq-h/MBq
- Kinetics value ([2]; source organ Brain, human male): 6.71E−03 MBq-h/MBq
- Kinetics value [2, 11]: 5.30E−03 MBq-h/MBq
- Kinetics value [2, 12]: 4.29E−03 MBq-h/MBq
- Kinetics value [2, 13]: 2.02E−03 MBq-h/MBq
- Kinetics value [2, 14]: 3.98E−01 MBq-h/MBq
- Kinetics value [2, 15]: 1.53E−03 MBq-h/MBq
- Kinetics value ([2]; source organ Liver, human male): 2.32E−02 MBq-h/MBq
- Kinetics value ([2]; source organ Lungs, human male): 2.41E−02 MBq-h/MBq
- Kinetics value [2, 16]: 8.55E−04 MBq-h/MBq
- Kinetics value [2, 17]: 7.16E−04 MBq-h/MBq
- Kinetics value [2, 18]: 3.15E−03 MBq-h/MBq
- Kinetics value [2, 19]: 5.39E−01 MBq-h/MBq
- Kinetics value [2, 20]: 1.53E−03 MBq-h/MBq
- Kinetics value [2, 21]: 6.65E−03 MBq-h/MBq
- Kinetics value [2, 22]: 6.93E−03 MBq-h/MBq
- Kinetics value [2, 23]: 5.06E−03 MBq-h/MBq
- Kinetics value [2, 24]: 3.72E−04 MBq-h/MBq
- Kinetics value [2, 25]: 3.15E−01 MBq-h/MBq
- complete response rate ([3]; human, in vivo): < 7%
- patients with progressive disease after treatment ([3]; human, in vivo): up to 33%
- side effects ([3]; human, in vivo): without severe side effects
- patients having >50% reduction in PSA levels ([3]; metastatic prostate cancer): 32-60%
- objective response ([3]; phase 2 Australian study, patients with measurable nodal or visceral disease): 82%
- excretion pathway ([4]; SPECT/CT images): excreted mainly via the renal pathway
- size of LNCaP tumor xenografts over time [4]: quick reduction in size
- Median survival [5]: 32 days
- kinetic uptake value used as input in OLINDA [6]: 3.80 MBq-h/MBq

SMILES: O=C([O-])CN1CCN(CC(=O)[O-])CCN(CC(=O)NCCCC[C@H](NC(=O)[C@H](CCC(=O)O)NC(=O)CCCc2ccc(I)cc2)C(=O)NC[C@H]2CC[C@H](C(=O)N[C@@H](Cc3ccc4ccccc4c3)C(=O)NCCCC[C@H](NC(=O)N[C@@H](CCC(=O)O)C(=O)O)C(=O)O)CC2)CCN(CC(=O)[O-])CC1.[177Lu+3] [^177Lu-HTK01169]
- Kinetics value ([1]; source organ Brain): 3.21E−02 MBq-h/MBq
- Kinetics value ([1]; source organ Cortical bone): 5.48E−01 MBq-h/MBq
- Kinetics value ([1]; source organ Heart contents): 1.66E−01 MBq-h/MBq
- Kinetics value ([1]; source organ Kidneys): 1.94E+01 MBq-h/MBq
- Kinetics value [1, 7]: 2.25E−01 MBq-h/MBq
- Kinetics value ([1]; source organ Liver): 1.41E+00 MBq-h/MBq
- Kinetics value ([1]; source organ Lungs): 1.28E−01 MBq-h/MBq
- Kinetics value ([1]; source organ Pancreas): 1.30E−01 MBq-h/MBq
- Kinetics value [1, 8]: 1.73E+01 MBq-h/MBq
- Kinetics value ([1]; source organ Small intestine): 6.73E−01 MBq-h/MBq
- Kinetics value ([1]; source organ Spleen): 4.38E−01 MBq-h/MBq
- Kinetics value ([1]; source organ Stomach contents): 1.54E−02 MBq-h/MBq
- Kinetics value ([1]; source organ Testes): 1.66E−01 MBq-h/MBq
- Kinetics value [1, 9]: 6.02E−01 MBq-h/MBq
- Kinetics value [2, 10]: 1.55E−02 MBq-h/MBq
- Kinetics value ([2]; source organ Brain, human male): 3.42E−02 MBq-h/MBq
- Kinetics value [2, 11]: 1.03E−02 MBq-h/MBq
- Kinetics value [2, 12]: 3.16E−01 MBq-h/MBq
- Kinetics value [2, 13]: 7.97E−02 MBq-h/MBq
- Kinetics value [2, 14]: 6.81E+00 MBq-h/MBq
- Kinetics value [2, 15]: 1.99E−02 MBq-h/MBq
- Kinetics value ([2]; source organ Liver, human male): 4.98E−01 MBq-h/MBq
- Kinetics value ([2]; source organ Lungs, human male): 6.03E−01 MBq-h/MBq
- Kinetics value [2, 16]: 2.05E−02 MBq-h/MBq
- Kinetics value [2, 17]: 9.27E−03 MBq-h/MBq
- Kinetics value [2, 18]: 2.46E−01 MBq-h/MBq
- Kinetics value [2, 19]: 1.21E+01 MBq-h/MBq
- Kinetics value [2, 20]: 1.99E−02 MBq-h/MBq
- Kinetics value [2, 21]: 8.61E−02 MBq-h/MBq
- Kinetics value [2, 22]: 2.03E−01 MBq-h/MBq
- Kinetics value [2, 23]: 1.44E−02 MBq-h/MBq
- Kinetics value [2, 24]: 1.25E−02 MBq-h/MBq
- Kinetics value [2, 25]: 1.72E−01 MBq-h/MBq
- excretion pathway ([4]; SPECT/CT images): excreted mainly via the renal pathway
- tumor uptake (qualitative) ([4]; SPECT/CT images, compared with 177Lu-PSMA-617): Higher and sustained tumor uptake
- renal retention (qualitative) ([4]; SPECT/CT images, early time points (4 and 24 h), compared with 177Lu-PSMA-617): higher renal retention
- size of LNCaP tumor xenografts over time [4]: quick reduction in size
- kinetic uptake value used as input in OLINDA [6]: 31.72 MBq-h/MBq
